From ChEMBL document CHEMBL4251663, “Marine Invertebrate Natural Products that Target Microtubules” (J Nat Prod, 2018)
Converted amounts (≈) assume the structure as drawn.

Columns and labels:
A549 = experiment: Cytotoxicity against human A549 cells; assay type: functional, cell-based
[1] = Cytotoxicity against human MEL28 cells; assay type: functional, cell-based; conditions: SK-MEL-28
HT-29 = experiment: Cytotoxicity against human HT-29 cells; assay type: functional, cell-based
P388 = experiment: Cytotoxicity against mouse P388 cells; assay type: functional, cell-based
Tubulin = experiment: Inhibition of tubulin polymerization (unknown origin) pretreated for 15 mins followed by GTP addition by spectrophotometric method; assay type: protein-complex assay, Homo sapiens

SMILES	IC50 (A549) [ng/mL]	IC50 [1] [ng/mL]	IC50 (HT-29) [ng/mL]	IC50 (P388) [ng/mL]	IC50 (Tubulin) [µM]
C=C1C[C@@H]2C/C=C/C(=O)C/C(C)=C\C=C\C(=O)O[C@H]([C@H](O)NC(=O)/C=C\C=C\C)C/C(C)=C/[C@H](C1)O2 [ZAMPANOLIDE]	1 to 5 (≈ 2.02 to 10.1 nM)	1 to 5 (≈ 2.02 to 10.1 nM)	1 to 5 (≈ 2.02 to 10.1 nM)	1 to 5 (≈ 2.02 to 10.1 nM)	–
COC1=CC(=O)N(C(=O)[C@@H](OC(=O)[C@@H]2CCCN2C(=O)[C@@H]2CCCN2C(=O)[C@H](C(C)C)N(C)C(=O)[C@@H](NC(=O)[C@H](C(C)C)N(C)C)C(C)C)C(C)C)[C@H]1Cc1ccccc1 [DOLASTATIN 15]	–	–	–	–	23
CC[C@H](C)[C@@H]([C@@H](CC(=O)N1CCC[C@H]1[C@H](OC)[C@@H](C)C(=O)N[C@@H](Cc1ccccc1)c1nccs1)OC)N(C)C(=O)[C@@H](NC(=O)[C@H](C(C)C)N(C)C)C(C)C [DOLASTATIN-10]	–	–	–	–	1.2
